From patent US10064797B2, “Topical formulations for UV protection” (TOPGENIX, INC., priority 2014, dated 2018)

What was measured:
[1] = Photostability: UV absorption spectra before and after UV exposure; type: physicochemical; conditions: before vs after UV exposure; 290 nm to 400 nm; FIGS. 2 and 4
Method: (§1) In both cases, the absorptivity of these two compounds were studied. In addition, photostability of these two compounds were also assessed by taking a second UV absorption spectra after exposing the compounds to UV. Photostability of sun screening compounds are of critical importance as a compound would be completely ineffective if they lose their UV absorptive qualities shortly after being exposed to solar radiation.
Turning to FIG. 2, this set of spectra show the effects of UV exposure on 3-hydroxy-2-methoxy-cyclo-2-enone, avobenzone, and combinations thereof over a wavelength range of 290 nm and 400 nm. A first spectrum 210 and a second spectrum 212 are for avobenzone before and after UV exposure. A third spectrum 220 and a fourth spectrum 222 are for 3-hydroxy-2-methoxy-cyclo-2-enone before and after UV exposure, respectively. A fifth spectrum 230 and a sixth spectrum 232 correspond to a combination of 3-hydroxy-2-methoxy-cyclo-2-enone and avobenzone at a ratio of 1:2 before and after UV exposure, respectively. Finally, a seventh spectrum 240 and an eighth spectrum 242 correspond to a combination of 3-hydroxy-2-methoxy-cyclo-2-enone and avobenzone at a ratio of 2:1 before and after UV exposure, respectively.
A first spectrum 410 and a second spectrum 412 are for avobenzone before and after UV exposure. […]

[2] = UV absorption spectra of the compounds, avobenzone and their combinations; type: physicochemical; conditions: for UV absorption: 320 nm and 400 nm, each compound alone
Method: as §1
Avobenzone is an example for a known chemical UV absorber that can be combined.

change of UV absorption after UV exposure (photostability) [1]	UV absorption ([2]; FIG. 1)	absorbance at 320 nm relative to strongest absorbance ([2]; at 320 nm, FIG. 1)	wavelength of strongest (maximum) UV absorption ([2]; compound alone)	Molecule
dropped overall	relatively low	drops off by approximately half	around 262 nm	3-Hydroxy-2-methoxy-cyclo-2-enone
dropped overall	relatively low	–	–	COc1ccc(C(=O)CC(=O)c2ccc(C(C)(C)C)cc2)cc1 [avobenzone, reference compound]
